Columns and labels:
Type in all cases: biochemical
[1] = test system: N-acetyl-(R)-β-amino acid acylase derived from Burkholderia sp. AJ110349 (JM109/ptrp4_3BR cell-free extract); test: Substrate specificity and optical selectivity with cell-free extract of JM109/ptrp4_3BR; conditions: for Concentration of acetic acid detected: JM109/ptrp4_3BR 50 mU cell-free extract, 37° C.; for optical selectivity of β-amino acid produced (ee): after reacting for 24 hours; for optical selectivity of β-amino acid produced (ee) / β-amino acid enantiomer detected in the reaction solution: chiral HPLC; for β-amino acid enantiomer detected in the reaction solution: 24 hours (10 minutes for the 3,4-(—O—CH2—O—) substrate)
Description: (§1) An Astec Chirobiotec T (0.46 cm in diameter, 25 cm) column was employed. A 90 percent MeOH mobile phase was employed. The temperature was 40° C. and the flow rate was 0.4 mL/minute. Optical selectivity was determined based on comparison with various standard (R) and (S) standard products under UV detection conditions of 205 nm.
(§2) The column employed was comprised of an Inertsil ODS3 (0.46 cm in diameter, 5 cm) made by GL Science and a Chiralpak WH (0.46 cm in diameter, 25 cm) made by Daisel Chemical Industries, arranged consecutively in that order. The mobile phase was 1 mM CuSO4, 10 percent MeOH. The temperature was 50° C. and the flow rate was 1.0 mL/minute. Detection was conducted with a UV detector at 210 nm and optical selectivity was determined by comparison with standard (R) and (S) products.
(§3) JM109/ptrp4—3BR, JM109/pSFN—2BS, and JM109/pSFN—1VR were precultured for 16 hours at 37° C. in LB medium containing 100 mg/L of ampicillin. 1 mL quantity of the cultured bacterial cells was transplanted to 50 mL of TB medium containing 100 mg/L of ampicillin and cultured for 16 hours at 30° C. The bacterial cells obtained were centrifugally separated to concentrate the bacteria cells. The bacterial cells were washed with 50 mM Tris buffer solution (pH 7.6) and the same buffer solution was used to prepare a bacterial cell suspension. Ultrasonic rupturing was employed to rupture the bacterial cells. A supernatant solution obtained by centrifugal separation (15,000 g, 10 minutes, 4° C.) was employed as a cell-free extract, and substrate specificity for the various N-acetyl-(R,S)-β-amino acids described above in Embodiments 2-1 to 9 was examined.
(§4) After adjusting the enzymes by the above methods, their activity was measured. Activity producing 1 μmol of β-Phe per minute from N-acetyl-(R,S)-β-Phe was denoted as 1 U. In the various examination of substrate specificity, 50 mU cell-free extracts were employed. As a negative control, instead of the cell-free medium prepared as set forth above, a 50 mM Tris buffer solution (pH 7.6) that had been reacted with each of the substrates was employed as an “Enzyme-” test zone, and instead of the individual substrates, 50 mM Tris buffer solution (pH 7.6) that had been reacted with each of the cell-free extracts was employed as a “Substrate-” test zone.
(§5) 50 mM Tris-HCl (pH 7.6) and 0.2 percent of various N-acetyl-(R,S)-β-amino acids were reacted at 37° C. for 1 hour or 24 hours, and then processed for 10 minutes at 96° C. to stop the reactions. The quantity of acetic acid produced by the decomposition of acetyl groups was determined by the protocol of an acetic acid kit (Roche).
(§6) After reacting for 24 hours, the samples were analyzed with various chiral resolution columns to determine optical selectivity.
(§7) A 300 μL quantity of culture solution was washed with 50 mM Tris-HCl (pH 7.6), suspended in 300 μL of 50 mM Tris-HCl (pH 7.6), and subjected to ultrasonic rupturing to rupture the bacteria. A supernatant solution obtained by centrifugal separation (15,000 g, 10 minutes, 4° C.) was employed as cell-free extract in the reaction.
(§8) 50 mM Tris-HCl (pH 7.6) and 0.2 percent N-acetyl-(R,S)-3,4-(—O—CH2—O—)-β-phenylalanine were reacted for 10 minutes at 37° C. When 3,4-(—O—CH2—O—)-β-phenylalanine was quantized under the separation conditions of N-acetyl-β-Phe and β-Phe, the activity per mL of cell-free extract was 0.2 U for JM109/ptrp4—3BR, 3.9 U for JM109/pSFN—2BS, and 27.8 U for JM109/pSFN—1VR.
(§9) Various enzymes were prepared from the same bacterial cells and by the same methods as in 12-1, and 50 mU cell-free extracts were employed in the reaction. 50 mM Tris-HCl (pH 7.6) and 1 percent N-acetyl-(R,S)-β-3-Pyr-Ala were reacted for 1 hour at 37° C., after which the reaction was stopped by treatment at 70° C. for 10 minutes. The quantity of acetic acid generated by the decomposition of acetyl groups was determined by the protocol of an acetic acid kit (Roche).

[2] = test system: N-acetyl-(S)-β-amino acid acylase derived from Burkholderia sp. AJ110349 (JM109/pSFN_2BS cell-free extract); test: Substrate specificity and optical selectivity with cell-free extract of JM109/pSFN_2BS; conditions: for optical selectivity of β-amino acid produced (ee) / β-amino acid enantiomer detected in the reaction solution: JM109/pSFN-2BS, chiral HPLC; for optical selectivity of β-amino acid produced (ee): after reacting for 24 hours; for β-amino acid enantiomer detected in the reaction solution: 24 hours (10 minutes for the 3,4-(—O—CH2—O—) substrate); for Concentration of acetic acid detected: JM109/pSFN_2BS 50 mU cell-free extract, 37° C.
Description: as §1, §2, §3, §4, §5, §6, §7, §8, §9

[3] = test system: N-acetyl-(R)-β-amino acid acylase derived from Variovorax sp. AJ110348 (JM109/pSFN_1VR cell-free extract); test: Substrate specificity and optical selectivity with cell-free extract of JM109/pSFN_1VR; conditions: for Concentration of acetic acid detected: JM109/pSFN_1VR 50 mU cell-free extract, 37° C.; for optical selectivity of β-amino acid produced (ee): after reacting for 24 hours; for optical selectivity of β-amino acid produced (ee) / β-amino acid enantiomer detected in the reaction solution: chiral HPLC; for β-amino acid enantiomer detected in the reaction solution: 24 hours (10 minutes for the 3,4-(—O—CH2—O—) substrate)
Description: as §1, §2, §3, §4, §5, §6, §7, §8, §9

[4] = 0.2 percent substrate, 24 hours

SMILES | Concentration of acetic acid detected ([1]; 0.2 percent substrate, 1 hour) | Concentration of acetic acid detected [1, 4] | optical selectivity of β-amino acid produced (ee) ([1]; JM109/ptrp4—3BR) | β-amino acid enantiomer detected in the reaction solution ([1]; JM109/ptrp4—3BR) | optical selectivity of β-amino acid produced (ee) [2] | β-amino acid enantiomer detected in the reaction solution [2] | Concentration of acetic acid detected ([2]; 0.2 percent substrate, 1 hour) | Concentration of acetic acid detected [2, 4] | Concentration of acetic acid detected ([3]; 0.2 percent substrate, 1 hour) | Concentration of acetic acid detected [3, 4] | optical selectivity of β-amino acid produced (ee) ([3]; JM109/pSFN—1VR) | β-amino acid enantiomer detected in the reaction solution ([3]; JM109/pSFN—1VR) | activity per mL of cell-free extract ([1]; JM109/ptrp4—3BR, 0.2 percent substrate, 10 minutes at 37° C.) | activity per mL of cell-free extract ([2]; JM109/pSFN—2BS, 0.2 percent substrate, 10 minutes at 37° C.) | activity per mL of cell-free extract ([3]; JM109/pSFN—1VR, 0.2 percent substrate, 10 minutes at 37° C.) | acetic acid detected ([1]; JM109/ptrp4—3BR 50 mU cell-free extract, 1 percent substrate, 1 hour at 37° C.) | acetic acid detected ([2]; JM109/pSFN—2BS 50 mU cell-free extract, 1 percent substrate, 1 hour at 37° C.) | acetic acid detected ([3]; JM109/pSFN—1VR 50 mU cell-free extract, 1 percent substrate, 1 hour at 37° C.)
CC(=O)NC(CC(=O)O)c1ccc(F)cc1 (racemic) [N-Ac-β-4-F-Phe, N-acetyl-(R,S)-4-fluoro-β-Phe] | 4.6 mM | 5.4 mM | 94 % ee | (R)-4-fluoro-β-Phe was detected | > 99 % ee | (S)-4-fluoro-β-Phe was detected | 5.2 mM | 5.1 mM | 4.6 mM | 4.7 mM | > 99 % ee | (R)-4-fluoro-β-Phe was detected | – | – | – | – | – | –
CC(=O)NC(C)CC(=O)O (racemic) [N-Ac-β-Aba, N-acetyl-(R,S)-β-aminobutyric acid] | 0.1 mM | 0.6 mM | – | – | – | – | 0.1 mM | 0.3 mM | 0.0 mM | 0.1 mM | – | – | – | – | – | – | – | –
CC(=O)NC(CC(=O)O)C(C)C (racemic) [N-Ac-β-Leu, N-acetyl-(R,S)-β-Leu] | 0.2 mM | 5.6 mM | > 99 % ee | (R)-β-Leu was detected | > 99 % ee | (S)-β-Leu was detected | 1.6 mM | 6.2 mM | 0.0 mM | 1.0 mM | > 99 % ee | (R)-β-Leu was detected | – | – | – | – | – | –
CC(=O)NC(CC(=O)O)c1ccccc1 (racemic) [N-Ac-β-Phe, N-acetyl-(R,S)-β-Phe] | 5.0 mM | – | – | – | – | – | 5.3 mM | – | 5.2 mM | – | – | – | – | – | – | – | – | –
CC(=O)NC(CC(=O)O)c1ccc(O)cc1 (racemic) [N-Ac-β-Tyr, N-acetyl-(R,S)-β-Tyr] | 4.5 mM | 4.9 mM | 61 % ee | (R)-β-Tyr was detected | > 99 % ee | (S)-β-Tyr was detected | 5.2 mM | 5.2 mM | 5.1 mM | 4.6 mM | > 99 % ee | (R)-β-Tyr was detected | – | – | – | – | – | –
CC(=O)NC(CC(=O)O)CC(C)C (racemic) [N-Ac-β-homoLeu, N-acetyl-(R,S)-β-homoLeu] | 3.0 mM | 7.5 mM | 69 % ee | (S)-β-homoLeu was detected | > 99 % ee | (R)-β-homoLeu was detected | 1.2 mM | 5.4 mM | 0.0 mM | 0.6 mM | > 99 % ee | (S)-β-homoLeu was detected | – | – | – | – | – | –
CC(=O)NC(CC(=O)O)Cc1ccccc1 (racemic) [N-Ac-β-homoPhe, N-acetyl-(R,S)-β-homoPhe] | 1.6 mM | 3.7 mM | 98 % ee | (S)-β-homoPhe was detected | > 99 % ee | (R)-β-homoPhe was detected | 0.5 mM | 4.0 mM | 0.1 mM | 2.6 mM | > 99 % ee | (S)-β-homoPhe was detected | – | – | – | – | – | –
CC(=O)NC(CC(=O)O)c1ccc2c(c1)OCO2 (racemic) [N-acetyl-(R,S)-3,4-(—O—CH2—O—)-β-phenylalanine] | – | – | – | (R)-3,4-(—O—CH2—O—)-β-phenylalanine was detected | – | (S)-3,4-(—O—CH2—O—)-β-phenylalanine was detected | – | – | – | – | – | (R)-3,4-(—O—CH2—O—)-β-phenylalanine was detected | 0.2 U | 3.9 U | 27.8 U | – | – | –
CC(=O)NC(CC(=O)O)c1cccnc1 (racemic) [N-acetyl-(R,S)-β-3-Pyr-Ala] | – | – | – | – | – | – | – | – | – | – | – | – | – | – | – | 3.5 mM | 8.4 mM | 0.8 mM

Source: patent publication US7858348B2, “N-acetyl-(R,S)-beta-amino acid acylase gene” (Ajinomoto Co., Inc., priority 2006, dated 2010)
